Measured values published in patent US10597388B2, “Pyridazinone herbicides” (FMC CORPORATION, priority 2014, dated 2020).

Tests used:
Assay in all cases: Test D controlled growth environment herbicide test, pre- and postemergence
Assay type in all cases: in vivo
[1] = tested on: lambsquarters (Chenopodium album)
Procedure, shortened: (§1)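 Rating is visual, 0–100 scale (100 = complete control), made against untreated plants 14–21 d after treatment in controlled growth conditions. Postemergence sprays went onto 1- to 4-leaf plants in peat medium; preemergence sprays onto silt loam after sowing; formulation included a surfactant.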

[2] = tested on: field poppy (Papaver rhoeas)
Procedure, shortened: as §1

[3] = tested on: bromegrass, downy (downy bromegrass, Bromus tectorum)
Procedure, shortened: as §1

[4] = tested on: oilseed rape (Brassica napus)
Procedure, shortened: as §1

[5] = tested on: wheat, spring (spring wheat, Triticum aestivum)
Procedure, shortened: as §1

[6] = tested on: chickweed (common chickweed, Stellaria media)
Procedure, shortened: as §1

[7] = tested on: galium (catchweed bedstraw, Galium aparine)
Procedure, shortened: as §1

[8] = tested on: foxtail, green (green foxtail, Setaria viridis)
Procedure, shortened: as §1

[9] = tested on: chamomile (scentless chamomile, Matricaria inodora)
Procedure, shortened: as §1

[10] = tested on: canarygrass (Phalaris minor)
Procedure, shortened: as §1

kochia (Kochia scoparia) = tested on: kochia (Kochia scoparia)
Procedure, shortened: as §1

[11] = tested on: barley, spring (spring barley, Hordeum vulgare)
Procedure, shortened: as §1

[12] = tested on: blackgrass (Alopecurus myosuroides)
Procedure, shortened: as §1

[13] = tested on: deadnettle (henbit deadnettle, Lamium amplexicaule)
Procedure, shortened: as §1

[14] = Postemergence, 31 g ai/ha, scale 0 to 100 (0 no effect, 100 complete control)
[15] = Postemergence, 125 g ai/ha, visual rating on scale 0 (no effect) to 100 (complete control), 14 to 21 d
[16] = Postemergence, 250 g ai/ha, scale 0 to 100 (0 no effect, 100 complete control)
[17] = Preemergence, 62 g ai/ha, scale 0 to 100 (0 no effect, 100 complete control)
[18] = Preemergence, 125 g ai/ha, scale 0 to 100 (0 no effect, 100 complete control)
[19] = Preemergence, 250 g ai/ha, scale 0 to 100, 0 no effect, 100 complete control
[20] = postemergence, 62 g ai/ha, scale 0 to 100, 0 no effect, 100 complete control

Cc1ccc2ccccc2c1-c1c(OC(=O)OC(C)C)c(C)nn(C)c1=O [Compound 72]
Lambsquarters plant response rating [1, 14]: 80
Plant response rating, Lambsquarters [1, 15]: 90
Plant response rating, Lambsquarters [1, 16]: 100
Plant response rating (scale of 0 to 100), Lambsquarters ([1]; Preemergence, 31 g ai/ha): 35
Plant response rating, Lambsquarters [1, 17]: 100
Plant response rating, Lambsquarters [1, 18]: 95
Plant response rating, Lambsquarters [1, 19]: 95
Plant response rating, Lambsquarters [1, 20]: 95
Field Poppy plant response rating [2, 14]: 80
Plant response rating, Field Poppy [2, 15]: 100
Plant response rating, Field Poppy [2, 16]: 100
Plant response rating (scale of 0 to 100), Field Poppy ([2]; Preemergence, 31 g ai/ha): 100
Plant response rating, Field Poppy [2, 17]: 100
Plant response rating, Field Poppy [2, 18]: 100
Plant response rating, Field Poppy [2, 19]: 100
Plant response rating, Field Poppy [2, 20]: 90
Bromegrass, Downy plant response rating [3, 14]: 45
Plant response rating, Bromegrass, Downy [3, 15]: 65
Plant response rating, Bromegrass, Downy [3, 16]: 75
Plant response rating (scale of 0 to 100), Bromegrass, Downy ([3]; Preemergence, 31 g ai/ha): 0
Plant response rating, Bromegrass, Downy [3, 17]: 0
Plant response rating, Bromegrass, Downy [3, 18]: 35
Plant response rating, Bromegrass, Downy [3, 19]: 60
Plant response rating, Bromegrass, Downy [3, 20]: 55
Oilseed Rape plant response rating [4, 14]: 65
Plant response rating, Oilseed Rape [4, 15]: 80
Plant response rating, Oilseed Rape [4, 16]: 90
Plant response rating (scale of 0 to 100), Oilseed Rape ([4]; Preemergence, 31 g ai/ha): 5
Plant response rating, Oilseed Rape [4, 17]: 15
Plant response rating, Oilseed Rape [4, 18]: 15
Plant response rating, Oilseed Rape [4, 19]: 25
Plant response rating, Oilseed Rape [4, 20]: 70
Wheat, Spring plant response rating [5, 14]: 40
Plant response rating, Wheat, Spring [5, 15]: 60
Plant response rating, Wheat, Spring [5, 16]: 70
Plant response rating (scale of 0 to 100), Wheat, Spring ([5]; Preemergence, 31 g ai/ha): 0
Plant response rating, Wheat, Spring [5, 17]: 35
Plant response rating, Wheat, Spring [5, 18]: 65
Plant response rating, Wheat, Spring [5, 19]: 80
Plant response rating, Wheat, Spring [5, 20]: 50
Chickweed plant response rating [6, 14]: 98
Plant response rating, Chickweed [6, 15]: 100
Plant response rating, Chickweed [6, 16]: 100
Plant response rating (scale of 0 to 100), Chickweed ([6]; Preemergence, 31 g ai/ha): 70
Plant response rating, Chickweed [6, 17]: 100
Plant response rating, Chickweed [6, 18]: 100
Plant response rating, Chickweed [6, 19]: 100
Plant response rating, Chickweed [6, 20]: 100
Galium plant response rating [7, 14]: 95
Plant response rating, Galium [7, 15]: 100
Plant response rating, Galium [7, 16]: 100
Plant response rating (scale of 0 to 100), Galium ([7]; Preemergence, 31 g ai/ha): 20
Plant response rating, Galium [7, 17]: 60
Plant response rating, Galium [7, 18]: 70
Plant response rating, Galium [7, 19]: 85
Plant response rating, Galium [7, 20]: 100
Foxtail, Green plant response rating [8, 14]: 60
Plant response rating, Foxtail, Green [8, 15]: 70
Plant response rating, Foxtail, Green [8, 16]: 75
Plant response rating (scale of 0 to 100), Foxtail, Green ([8]; Preemergence, 31 g ai/ha): 20
Plant response rating, Foxtail, Green [8, 17]: 30
Plant response rating, Foxtail, Green [8, 18]: 60
Plant response rating, Foxtail, Green [8, 19]: 85
Plant response rating, Foxtail, Green [8, 20]: 65
Chamomile plant response rating [9, 14]: 75
Plant response rating, Chamomile [9, 15]: 85
Plant response rating, Chamomile [9, 16]: 100
Plant response rating, Chamomile [9, 20]: 80
Canarygrass plant response rating [10, 14]: 40
Plant response rating, Canarygrass [10, 15]: 80
Plant response rating, Canarygrass [10, 16]: 85
Plant response rating (scale of 0 to 100), Canarygrass ([10]; Preemergence, 31 g ai/ha): 0
Plant response rating, Canarygrass [10, 17]: 80
Plant response rating, Canarygrass [10, 18]: 85
Plant response rating, Canarygrass [10, 19]: 95
Plant response rating, Canarygrass [10, 20]: 50
Kochia plant response rating (kochia (Kochia scoparia); [14]): 80
Plant response rating, Kochia (kochia (Kochia scoparia); [15]): 100
Plant response rating, Kochia (kochia (Kochia scoparia); [16]): 100
Plant response rating (scale of 0 to 100), Kochia (kochia (Kochia scoparia); Preemergence, 31 g ai/ha): 10
Plant response rating, Kochia (kochia (Kochia scoparia); [17]): 15
Plant response rating, Kochia (kochia (Kochia scoparia); [18]): 10
Plant response rating, Kochia (kochia (Kochia scoparia); [19]): 40
Plant response rating, Kochia (kochia (Kochia scoparia); [20]): 95
Barley, Spring plant response rating [11, 14]: 5
Plant response rating, Barley, Spring [11, 15]: 10
Plant response rating, Barley, Spring [11, 16]: 15
Plant response rating (scale of 0 to 100), Barley, Spring ([11]; Preemergence, 31 g ai/ha): 0
Plant response rating, Barley, Spring [11, 17]: 0
Plant response rating, Barley, Spring [11, 18]: 0
Plant response rating, Barley, Spring [11, 19]: 60
Plant response rating, Barley, Spring [11, 20]: 5
Blackgrass plant response rating [12, 14]: 40
Plant response rating, Blackgrass [12, 15]: 75
Plant response rating, Blackgrass [12, 16]: 80
Plant response rating (scale of 0 to 100), Blackgrass ([12]; Preemergence, 31 g ai/ha): 15
Plant response rating, Blackgrass [12, 17]: 30
Plant response rating, Blackgrass [12, 18]: 55
Plant response rating, Blackgrass [12, 19]: 75
Plant response rating, Blackgrass [12, 20]: 70
Deadnettle plant response rating [13, 14]: 85
Plant response rating, Deadnettle [13, 15]: 100
Plant response rating, Deadnettle [13, 16]: 100
Plant response rating (scale of 0 to 100), Deadnettle ([13]; Preemergence, 31 g ai/ha): 5
Plant response rating, Deadnettle [13, 17]: 15
Plant response rating, Deadnettle [13, 18]: 65
Plant response rating, Deadnettle [13, 19]: 70
Plant response rating, Deadnettle [13, 20]: 90
